Results published in US20030053967A1, “Use of 3,4-dihydroxy-mandelic acid for protecting against oxidative damage caused by ultra-violet light” (priority 2000, published 2003).

Assays:
[1] = 1,1-diphenyl-2-picrylhydrazyl test (DPPH test) for the removal of free radicals; format: biochemical; settings: DPPH 100 μmol/l in methanol, absorption at 515 nm
Procedure: The activity of 3,4-dihydroxymandelic acid as free-radical scavenger was compared with that of conventional free-radical scavengers. For this purpose, the 1,1-diphenyl-2-picrylhydrazyl test (DPPH test) for the removal of free radicals was used.
1,1-Diphenyl-2-picrylhydrazyl (DPPH) was dissolved in methanol to a concentration of 100 μmol/l. A series of dilutions of 3,4-dihydroxymandelic acid, vitamin C, α-tocopherol and 2,6-di-tert-butyl-4-methylphenol were prepared in methanol. Methanol was used as the control. 2500 μl of the DPPH solution were mixed with 500 μl of each test solution and the decrease in absorption at 515 nm was read until the decrease was less than 2% per hour. The activity of the test substances as free-radical scavengers was calculated using the following equation:
Activity as free-radical scavenger (%)=100−(absorption of the test compounds)/(absorption of the control)×100.
The activity of the free-radical scavengers (%) in a series of dilutions of test compounds was used to calculate, for each test compound, the effective relative concentration EC50 (based on the starting concentration of DPPH, EC=c (test compound)/c(DPPH)) of a test compound at which 50% of the free radical DPPH had been removed.

[2] = accelerated autoxidation of lipids by air, Rancimat apparatus, soybean oil; settings: for AOI in soybean oil at 100° C. with 0.05% test substance: soybean oil purified over alumina, AOI = IP(test)/IP(control); for AOI, soybean oil, 100° C.: single substance, c 0.025 % by wt.
Procedure: (§1) The test system used was the accelerated autoxidation of lipids by air with or without antioxidant using the Rancimat apparatus (Rancimat is a registered trademark of Metrohm AG, Herisau, Switzerland). […] In a control sample, only solvent was added. […] The conductivity of this aqueous solution was continuously measured and documented. The oxidation of (unsaturated) fats proceeds only very slowly for some time and then suddenly increases. The time to the increase is referred to as the induction period (IP). The following equation was used to calculate the antioxidative index (AOI): AOI=IP(with test solution/IP(control sample) The results for the experiment in soybean oil that has been purified over alumina grade N at 100° C. are shown in Table 2: The experiments were carried out as described under Example 2. […] The AOI values measured for the combinations were compared with the AOI values calculated according to the following formula: […]

[3] = accelerated autoxidation of lipids by air, Rancimat apparatus, squalene; settings: for AOI in squalene at 80° C. with 0.005% of test substance: squalene purified over alumina, stabilized with 1 ppm α-tocopherol, 0.005% test substance; for AOI, squalene, 80° C.: single substance, c 0.0025 % by wt.
Procedure: as §1, with “squalene” for “soybean oil”, “N and stabilized with 1 ppm of α-tocopherol” for “N”, “80°” for “100°”, “3:” for “2:”

[4] = system: ultraviolet light-induced sebum oxidation (squalene hydroperoxide, SQOOH); assay: protective action against ultraviolet light-induced sebum oxidation on the skin of subjects; format: in vivo, human; settings: back skin of 12 subjects, UV 320 to 400 nm, 10 joules/cm^2; for c(H2O2)/c(SQ): 2 mg/cm^2 topical (acid: 200 mg in 200 ml 1,3-butylene glycol twice daily for 2 days; tocopherol: 0.2% ethanolic, once before irradiation); for % inhibition compared with the untreated area: squalene hydroperoxide, 2 mg/cm^2 topical
Procedure: 200 mg of 3,4-dihydroxymandelic acid were dissolved in 200 ml of 1,3-butylene glycol (solution A). In addition, a 0.2% strength ethanolic solution of tocopherol was prepared (solution B). A dose of 2 mg/cm^2 of solution A was applied twice daily to the skin on the back of 12 subjects for 2 days in each case. Prior to the following irradiation, solution B was applied to a control area (2 mg/cm^2). The 2 treated and one untreated sites were irradiated with ultraviolet light (320 to 400 nm, 10 joules/cm^2). The test areas in each case were treated with 4 ml of ethanol for 2 min, the solutions were dried under nitrogen at room temperature and the residue was taken up in 1 ml of ethanol. The latter solutions were investigated by HPLC for their content of squalene (detection at 210 nm against standard) or squalene hydroperoxide (SQOOH, determination of the peroxide content using cytochrome C/luminol-enhanced chemiluminescence). The content of squalene peroxide was given relative to squalene in the form of picomols peroxide per fig of squalene.
The inhibition based on the untreated area was calculated using the following equation:
% inhibition=100·(cSQOOH untreated−cSQOOH, treated)/CSQOOH, untreated

Cc1cc(C(C)(C)C)c(O)c(C(C)(C)C)c1 [2,6-Di-tert-butyl-4-methylphenol]
EC50 (effective relative concentration at which 50% of the free radical DPPH had been removed, c(test compound)/c(DPPH)) [1]: 0.240 mol/mol
AOI in soybean oil at 100° C. with 0.05% test substance [2]: 4.8
AOI in squalene at 80° C. with 0.005% of test substance [3]: 38

O=C1O[C@H]([C@@H](O)CO)C(O)=C1O [Vitamin C]
EC50 (effective relative concentration at which 50% of the free radical DPPH had been removed, c(test compound)/c(DPPH)) [1]: 0.270 mol/mol
AOI in soybean oil at 100° C. with 0.05% test substance [2]: 1.2
AOI in squalene at 80° C. with 0.005% of test substance [3]: 0.7

Cc1c(C)c2c(c(C)c1O)CC[C@@](C)(CCC[C@H](C)CCC[C@H](C)CCCC(C)C)O2 [α-Tocopherol]
c(H2O2)/c(SQ) [4]: 664 ± 19 pmol/µg
% inhibition compared with the untreated area [4]: 28 ± 6%
EC50 (effective relative concentration at which 50% of the free radical DPPH had been removed, c(test compound)/c(DPPH)) [1]: 0.250 mol/mol
AOI, soybean oil, 100° C. [2]: 4.7
AOI in soybean oil at 100° C. with 0.05% test substance [2]: 5.1
AOI, squalene, 80° C. [3]: 23
AOI in squalene at 80° C. with 0.005% of test substance [3]: 39

O=C(O)C(O)c1ccc(O)c(O)c1 (centres unmarked) [3,4-Dihydroxymandelic acid, 2-(3,4-dihydroxyphenyl)-2-hydroxyacetic acid]
c(H2O2)/c(SQ) [4]: 618 ± 45 pmol/µg
% inhibition compared with the untreated area [4]: 33 ± 7%
EC50 (effective relative concentration at which 50% of the free radical DPPH had been removed, c(test compound)/c(DPPH)) [1]: 0.062 mol/mol
AOI, soybean oil, 100° C. [2]: 5.4
AOI in soybean oil at 100° C. with 0.05% test substance [2]: 9.5
AOI, squalene, 80° C. [3]: 15
AOI in squalene at 80° C. with 0.005% of test substance [3]: 34
